Test results taken from patent US7989629B2, “3-(4-{ [4-(4-{ [3-(3, 3-dimethyl-1-piperidinyl) propyl] oxy} phenyl)-1-piperidinyl] carbonyl}-1-naphthalenyl) propanoic or propenoic acid as H1 and H3 receptor antagonists for the treatment of inflammatory and/or allergic disorders” (Glaxo Group Limited, priority 2005, dated 2011).

Experiments:
Rat pharmacokinetics = assay type: in vivo
Protocol: Compounds are dosed to male CD Sprague Dawley rats by single intravenous or oral administration at a nominal dose level of 1 mg/kg and 3 mg/kg respectively. Compounds are formulated in 5% DMSO/45% PEG200/50% water. An intravenous profile is obtained by taking serial or terminal blood samples at 0.083, 0.25, 0.5, 1, 2, 4, and 7 hours post dose (for some studies 12 and 24 hour samples may be taken). An oral profile is obtained by taking serial or terminal blood samples at 0.25, 0.5, 1, 2, 4, 7 and 12 hours post dose (for some studies 24 and 30 hour samples may be taken). Blood samples are taken directly into heparinised tubes. Blood samples are prepared by protein precipitation and subjected to quantitative analysis by LC-MS/MS using compound-specific mass transitions. Drug concentration-time profiles are generated and non-compartmental PK analysis used to generate estimates of half-life, clearance, volume of distribution and oral bioavailability.

Dog pharmacokinetics = assay type: in vivo; conditions: combined data for Example 1 and 3; for half-life / bioavailability: male, Beagle, whole blood; for bioavailability: po, 2 mg/kg
Protocol: Compounds are dosed to male Beagle dogs by single intravenous or oral administration at a nominal dose level of 1 mg/kg and 2 mg/kg respectively. The study is carried out according to a crossover design such that the same dog is used for both dosing events and the dosing events occurred 1 week apart. Compounds are formulated in 5% DMSO/45% Peg200/50% water. An intravenous profile is obtained by taking serial blood samples at 0.083, 0.25, 0.5, 0.75, 1, 2, 4, 6 and 12 hr post dose (for some studies 24 hour samples may be taken). An oral profile is obtained by taking serial blood samples at 0.25, 0.5, 0.75, 1, 2, 4, 6, 12 and 24 hr post dose. Blood samples are taken directly into heparinised tubes. Blood samples are prepared by protein precipitation and subjected to quantitative analysis by LC-MS/MS using compound-specific mass transitions. Drug concentration-time profiles are generated and non-compartmental PK analysis used to generate estimates of half-life, clearance, volume of distribution and oral bioavailability.

histamine H3 receptor = histamine H3 receptor (Homo sapiens, UniProt Q9Y5N1); assay: Histamine H3 functional antagonist assay (GTPγS); assay type: biochemical; conditions: functional antagonism, histamine at EC80; read-out: average pKi (pKb) at H3 (converted)
Excerpt: 2. H3 Receptor Cell Line Generation, Membrane Preparation and Functional GTPγS Assay Protocols
Generation of Histamine H3 Cell Line
The histamine H3 cDNA is isolated from its holding vector, pcDNA3.1 TOPO (InVitrogen), by restriction digestion of plasmid DNA with the enzymes BamH1 and Not-1 and ligated into the inducible expression vector pGene (InVitrogen) digested with the same enzymes. The GeneSwitch™ system (a system wherein transgene expression is switched off in the absence of an inducer and switched on in the presence of an inducer) is performed as described in U.S. Pat. Nos. 5,364,791; 5,874,534; and 5,935,934. […]
10-14 days post selection, 10 nM Mifepristone (InVitrogen) is added to the culture medium to induce the expression of the receptor. […] Receptor bound antibody is detected by incubation of the cells for 60 min on ice with a goat anti rabbit antibody, conjugated with Alexa 488 fluorescence marker (Molecular Probes). Following two further washes with Sorting Medium, cells are filtered through a 50 μm Filcon™ (BD Biosciences) and are then analysed on a FACS Vantage SE Flow Cytometer fitted with an Automatic Cell Deposition Unit, Control cells are non-induced cells treated in a similar manner. […]

human H1 receptor [1] = molecular target: T1, human H1 receptor (Homo sapiens, UniProt P35367); assay: Histamine H1 functional antagonist assay (FLIPR): determination of functional pKi values; assay type: cell-based; conditions: functional antagonism, CHO cells, histamine at EC80; read-out: average pKi (pKb) at H1 (converted)
Excerpt: H1 Receptor Cell Line Generation and FLIPR Assay Protocol
1. Generation of Histamine H1 Cell Line
(§1) The human H1 receptor may be cloned using known procedures described in the literature [Biochem. Biophys. Res. Commun., 201(2):894 (1994)]. Chinese hamster ovary (CHO) cells stably expressing the human H1 receptor may be generated according to known procedures described in the literature [Br. J. Pharmacol., 117(6):1071 (1996)].
Histamine H1 Functional Antagonist Assay: Determination of Functional pKi Values […]
10 μl of test compound, diluted to the required concentration in Tyrodes buffer+probenecid (or 10 μl Tyrodes buffer+probenecid as a control) is added to each well and the plate incubated for 30 min at 37° C., 5% CO2. The plates are then placed into a FLIPR™ (Molecular Devices, UK) to monitor cell fluorescence (λex=488 nm, λEM=540 nm) in the manner described in Sullivan et al., (In: Lambert D G (ed.), Calcium Signaling Protocols, New Jersey: Humana Press, 1999, 125-136) before and after the addition of 10 μl histamine at a concentration that results in the final assay concentration of histamine being EC80.
Functional antagonism is indicated by a suppression of histamine induced increase in fluorescence, as measured by the FLIPR™ system (Molecular Devices). By means of concentration effect curves, functional affinities are determined using standard pharmacological mathematical analysis.

human H1 receptor [2] = molecular target: T1, human H1 receptor; assay: Histamine H1 functional antagonist assay (FLIPR): determination of antagonist pA2; assay type: cell-based
Protocol: as §1
Histamine H1 Functional Antagonist Assay: Determination of Antagonist pA2
The histamine H1 receptor expressing CHO cells is seeded into non-coated black-walled clear bottom 96-well tissue culture plates as described above. […]
The plates are then placed into a FLIPR™ (Molecular Devices, UK) to monitor cell fluorescence (λex=488 nm, λEM=540 nm) in the manner described in Sullivan et al., (In: Lambert D G (ed.), Calcium Signaling Protocols, New Jersey: Humana Press, 1999, 125-136) before and after the addition of 50 μl histamine over a concentration range of 1 mM-0.1 nM. […] The antagonist pA2 is calculated using the following standard equation: pA2=log(DR−1)−log [B] where DR=dose ratio, defined as EC50antagonist-treated/EC50control and [B]=concentration of antagonist.

histamine-induced wheals = assay: In vivo anti-inflammatory wheal and flare model; parameters: species or system guinea pig
Protocol: In Vivo Anti-Inflammatory Wheal and Flare Model
Male Dunkin-Hartley guinea pigs 500 g-1 kg are dosed with test compound or vehicle using a 1 ml syringe into the oral cavity (0.5 ml/kg p.o.), or via a marginal ear vein (0.33 ml/kg i.v.). Compounds are formulated in 5% DMSO/45% PEG200/50% water.
Either 2 hr after oral or 15 min after intravenous compound administration, guinea pigs are anaesthetised with isoflurane (5%, […] O2), and receive Evans blue solution (2% in saline), 0.33 ml/kg i.v. via a marginal ear vein.
Immediately after Evans blue administration, and whilst still under isoflurane, animals are placed in a prone position, and an area of the back shaved. […]
Following histamine challenge, the animals are allowed to recover from anaesthesia and, 30 minutes later are euthanased with an i.p. overdose of pentobarbitone. The dorsal skin is carefully removed and wheal areas (stained blue) measured from the inner skin surface by taking two perpendicular diameters using engineer's calipers, and calculating the average radius. This value is used to calculate the area of each wheal, and the mean value of all histamine-induced wheals is subsequently calculated for each animal. […]
Dose-response curves are constructed for each test compound and ID50 values may be determined for each route of administration (oral and intravenous).

T1 sequence (P35367 whole entry): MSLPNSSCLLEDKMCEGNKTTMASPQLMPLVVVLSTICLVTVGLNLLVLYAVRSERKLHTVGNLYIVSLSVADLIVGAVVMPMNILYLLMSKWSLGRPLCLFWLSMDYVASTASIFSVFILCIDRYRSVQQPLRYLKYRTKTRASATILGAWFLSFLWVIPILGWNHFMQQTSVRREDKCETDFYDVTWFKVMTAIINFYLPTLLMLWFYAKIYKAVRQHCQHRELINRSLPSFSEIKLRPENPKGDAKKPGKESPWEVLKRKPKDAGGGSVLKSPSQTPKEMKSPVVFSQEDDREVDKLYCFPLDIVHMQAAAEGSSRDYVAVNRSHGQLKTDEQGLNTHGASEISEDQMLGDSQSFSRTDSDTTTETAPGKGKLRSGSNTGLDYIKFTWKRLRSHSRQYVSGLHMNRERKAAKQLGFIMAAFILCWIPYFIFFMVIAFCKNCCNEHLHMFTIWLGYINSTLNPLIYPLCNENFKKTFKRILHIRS
Sequence of histamine H3 receptor (Q9Y5N1 whole entry, species assumed): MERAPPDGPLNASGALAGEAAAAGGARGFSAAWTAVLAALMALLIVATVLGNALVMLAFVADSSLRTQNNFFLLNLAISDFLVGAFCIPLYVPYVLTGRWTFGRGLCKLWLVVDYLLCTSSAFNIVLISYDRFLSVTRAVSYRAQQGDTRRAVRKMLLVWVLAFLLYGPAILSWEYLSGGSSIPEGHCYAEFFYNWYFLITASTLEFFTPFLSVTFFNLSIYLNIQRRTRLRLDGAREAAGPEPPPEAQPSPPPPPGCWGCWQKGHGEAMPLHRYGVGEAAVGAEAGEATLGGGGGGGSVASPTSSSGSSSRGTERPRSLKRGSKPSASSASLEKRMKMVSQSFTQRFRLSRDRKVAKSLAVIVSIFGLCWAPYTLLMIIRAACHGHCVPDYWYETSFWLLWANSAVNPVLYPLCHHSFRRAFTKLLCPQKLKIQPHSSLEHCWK

Structure (SMILES) | plasma clearance (Rat pharmacokinetics) | half-life (Rat pharmacokinetics; male, CD Sprague Dawley, whole blood, 1 mg/kg, IV route) | bioavailability (Rat pharmacokinetics; male, CD Sprague Dawley, whole blood, po, 3 mg/kg) | plasma clearance (Dog pharmacokinetics) | half-life (Dog pharmacokinetics) | bioavailability (Dog pharmacokinetics) | Ki (histamine H3 receptor) | Ki (human H1 receptor [1]) | Kb (human H1 receptor [2]) | ID50 in the wheal and flare model (histamine-induced wheals; i.v.) | ID50 in the wheal and flare model (histamine-induced wheals; oral)
CC1(C)CCCN(CCCOc2ccc(C3CCN(C(=O)c4ccc(CCC(=O)O)c5ccccc45)CC3)cc2)C1 [Example 1, 3-(4-{[4-(4-{[3-(3,3-dimethyl-1-piperidinyl)propyl]oxy}phenyl)-1-piperidinyl]carbonyl}-1-naphthalenyl)propanoic acid, formic acid (1:1)] | low | 4 to 5 h | ~59% | low | ~3 h | ~60% | ~39.8 nM | ~15.8 nM | – | – | –
CC1(C)CCCN(CCCOc2ccc(C3CCN(C(=O)c4ccc(CCC(=O)O)c5ccccc45)CC3)cc2)C1.Cl [Example 3, 3-(4-{[4-(4-{[3-(3,3-dimethyl-1-piperidinyl)propyl]oxy}phenyl)-1-piperidinyl]carbonyl}-1-naphthalenyl)propanoic acid, hydrochloride salt] | – | – | – | low | ~3 h | ~60% | ~50.1 nM | ~12.6 nM | ~7.94 nM | about 0.6 mg/Kg | about 2.8 mg/Kg
